According to patent US12611456B2, “Use of thiazole amide compounds for modulating human immune response” (Children's Medical Center Corporation, priority 2019, dated 2026):
Entries after “also recorded” stand apart in the source; their conditions may differ.

Experiments:
IRF [1] = assay: THP1-ISG reporter cell line, luminescence; type: cell-based, human; details: THP1-ISG cells, 100 to 0.02 μM
Description: High throughput screen (HTS) overview: To identify small molecule immunomodulators/adjuvants that robustly activate human immune cells, ˜200,000 small molecules were screened and tested against THP1 cells. The chemical libraries screened included known bioactive and commercial libraries from various sources including commercial libraries such as ChemDiv, ChemBridge, and Asinex. All libraries were owned and provided by the Institute of Chemistry and Cell Biology (ICCB)—Longwood (Harvard Medical School). The project primary screen incorporated two distinct arms: a) a luciferase-based screen which corresponds to the relative activation of the human NFκB Reporter gene; and b) a fluorescence-based screen, corresponding to the phenotypic adherence, a distinct marker of cell activation, of the THP1 cells. In a secondary luciferase-based screen IRF-inducing activities of selected hits using a THP1-ISG reporter cell line were evaluated. Here, discovery of a thiazole amide small molecule family with both NFκB/IRF-inducing and leukocyte adherence-inducing activities towards human leukocytes was observed.
Briefly, THP1-dual NF-κB/IRF parent and derived cell lines were resuspended at a concentration of 10^5 cells/200 μl of THP1 culture medium and transferred to a 96-well plate pre-loaded with compounds dissolved in DMSO. In selected experiments, THP1 cells were also stimulated with TNF and IFNβ as controls for NF-κB and IRF activities, respectively. After 22-24 hours of incubation (37° C., 5% CO2), plates were spun down (500×g, room temperature, 5 minutes) and supernatants were harvested to assess NF-κB and IRF activities by measuring the levels of SEAP and Lucia luciferase with Quanti-Blue and Quanti-Luc, respectively.

NF-κB [2] = assay: THP1-NF-κB reporter cell line, luminescence; type: cell-based, human; details: THP1-NF-κB cells, 100 to 0.02 μM
Description: (§1) The THP1-NF-κB Lucia, THP1-dual NF-κB/IRF parent cell line, knocked out for MyD88 (THP1-AMyD88), TBK1 (THP1-ΔTBK1), IRF3 (THP1-AIRF3), cGAS (THP1-AcGAS), STING (THP1-ASTING), or expressing murine STING were obtained from Invivogen (San Diego, CA). THP1-derived cell lines are human monocytic cells derived from the blood of a child with leukemia and contain NF-κB- and IRF-inducible reporter construct to allow colorimetric- or luminescence-based assessment of NF-κB and IRF activities. THP1 cells were cultured in RPMI 1640 supplemented with 10% non-heat inactivated fetal bovine serum (FBS), 10 mM HEPES, 1.0 mM sodium pyruvate, 50 ug/ml Pen-Strep, and 100 ug/mL Normocin™. Once cultured, the cells were stored in a 37° C. incubator with 5% CO2 and a humidified atmosphere. Cells were passaged every 2-3 days and not allowed to exceed a concentration of 2.0×10^6 cells/ml media.
THP1-NF-κB cells between passage 15 and 18 and suspended in culture medium were dispensed into 384-well black clear-bottom plates (Corning 3712) at 30,000 cells/30 μl/well using a Combi liquid dispenser. To allow comparison to a benchmark small molecule with known immune stimulating activity, cells at the same concentration were stimulated with 50 μM R848, a TLR7/8 agonist, in 0.3% DMSO and added to every other well of column 24, which was left empty of cells, by multichannel pipette at the same volume. Five μl of 700 nM Phorbol myristate acetate (PMA) in THP1 culture media and 2.3% DMSO, a known peripheral blood cell mitogen, was added to every other well of column 23 by multichannel pipette (final concentration in well: 100 nM in 0.3% DMSO). Five μl of THP1 culture media with 2.3% DMSO was added to the remaining wells of column 23 by multichannel pipette (final concentration 0.3% DMSO). One hundred nl aliquots of library compounds diluted in 100% DMSO were transferred from their original 384-well plates to the assay plates using a Seiko pin transfer machine. Each library plate was pinned in duplicate, yielding two assay plates with identical conditions for comparison. Plates were then incubated for 24 hours at 37 C with 5% CO2 in humid conditions. Following incubation, 10 μL of supernatant was removed from each well and transferred to a white plate (Corning 3570) using a Vprep liquid transfer machine. 10 μL of recombinant Lucia protein (Invivogen) diluted 1:2000 in THP1 culture media was added to empty well 24P. Using a Combi liquid dispenser, 50 μL/well of Quanti-Luc substrate (Invivogen) diluted 1:3 in sterile water was added to the assay plate. Immediately after adding the substrate, the luminescence was read using a PerkinElmer Envision plate reader. This assay was adapted to a 96 well format to confirm and expand the HTS results.

NF-κB [3] = assay: NF-κB activity in THP1-dual NF-κB/IRF reporter cells; type: cell-based, human; details: 22-24 hr, 100, 25, 6.25 and 1.56 μM, fold over DMSO
Description: as §1
(§2) Briefly, THP1-dual NF-κB/IRF parent and derived cell lines were resuspended at a concentration of 10^5 cells/200 μl of THP1 culture medium and transferred to a 96-well plate pre-loaded with compounds dissolved in DMSO. In selected experiments, THP1 cells were also stimulated with TNF and IFNβ as controls for NF-κB and IRF activities, respectively. […]

THP1-NF-κB cells [4] = assay: Expression of co-stimulatory molecules CD80 and CD86 by flow cytometry; type: cell-based, human; details: 33 μM
Experimental: (§3) Following incubation and supernatant transfer described above, each black assay plate was manually washed. First, remaining suspension cells were expelled into a bath of 15% bleach by shaking the plate upside down. The plate was then submerged in a 7 L bath of 1×PBS. Once submerged, each plate was shaken vigorously side-to-side to release any air bubbles forming in the wells. The plate was then removed and shaken into the bleach bath once again. This process was repeated 3 times per plate. 30 μL/well of a mix of 2 μg/mL Hoechst 33342 in PBS with 1% Para-formaldehyde was added using a Combi liquid dispenser to the washed assay plates. Plates were left in the dark to stain and fix for 20 minutes. Washed and stained assay plates were then loaded onto an Acumen laser scanning cytometer. Total fluorescence area and number of objects (nuclei) were measured using the instrument for each well. This assay was adapted to a 96 well format to confirm and expand the HTS results. […] After 24 hours of incubation (37° C., 5% CO2), plates were washed with PBS to determine the number of adherent cells Alternatively, plates were spun down (500×g, room temperature, 5 minutes) and cells were harvested for staining with fluorescent Annexin V or antibodies against co-stimulatory markers CD80 and CD86 (Biolegend) according to the manufacturer's protocols and analyzed by flow cytometry (BD LSRFortessa).

THP1-NF-κB cells [5] = assay: Annexin V staining for apoptotic cells; type: cell-based, human; details: 33 μM
Experimental: as §3

MyD88 = assay: NF-κB and IRF activities in THP1 cells knocked out for MyD88, TBK1 or IRF3; type: cell-based, human; details: 25 μM, 22-24 hr, knockout vs parent THP1 cells
Description: as §1, §2

C57BL/6 mice = assay: Influenza rHA immunization of mice, anti-rHA IgG by ELISA; details: rHA + compound vs rHA alone; for adjuvant activity: anti-rHA IgG titers: prime Day 0, boost Day 28, serum Day 28 and Day 42, i.m., 100 nmol
Experimental: C57BL/6 mice were obtained from Charles River Laboratories and housed in specific pathogen-free conditions in the animal research facilities at Boston Children's Hospital.
For immunization experiments, adult mice were immunized intramuscularly (i.m.) in the right posterior thigh with 50 μl of vaccine containing 0.33 μg of each of the following recombinant influenza virus hemagglutinins (rHA): A/Michigan/45/2015 (H1N1), A/Hong Kong/4801/2014 (H3N2), and B/Brisbane/60/2008, contained in the 2016-2017 formulation of the FluBlok vaccine (Protein Sciences Corp.). Mice were immunized with a prime-boost schedule (two injections four weeks apart). Vaccine in all experimental groups was formulated with 10% (v/v) DMSO and 5% (v/v) Tween-80. As indicated for specific experimental groups, vaccine was also formulated with compound 057 (100 nmol, final DMSO concentration 10%). Serum was collected 28 days post-prime (pre-boost blood sample) and 14 days post-boost for antibody detection. rHA-specific IgG were quantified by ELISA. High binding flat bottom 96-well plates (Corning Life Sciences) were coated with 1 μg/ml rHA in carbonate buffer pH 9.6, incubated overnight at 4° C. and blocked with PBS+BSA 1% (Sigma-Aldrich) for 1 h at room temperature (RT). Then, sera from vaccinated mice were added with an initial dilution of 1:100 and 1:4 serial dilutions in PBS+BSA 1% and incubated for 2 hrs at RT. Plates were then washed and incubated for 1 hr at RT with HRP-conjugated anti-mouse IgG (Southern Biotech). At the end of the incubation plates were washed again and developed with tetramethylbenzidine (BD Biosciences) for 5 minutes, then stopped with 1 N H2SO4. The optical density was read at 450 nm Versamax microplate reader with SoftMax Pro Version 5 (both from Molecular Devices) and endpoint titers were calculated using as cutoff three times the optical density of the background.

IRF [6] = assay: IRF activity in THP1-dual NF-κB/IRF reporter cells; type: cell-based, human; details: 22-24 hr, 100, 25, 6.25 and 1.56 μM, fold over DMSO
Description: as §1, §2

THP1-NF-κB cells [7] = assay: THP1 cell adherence assay; type: cell-based, human; details: 33 μM, PMA and R848 positive controls
Experimental: as §3

STING = assay: NF-κB and IRF activities in THP1 cells knocked out for cGAS or STING; type: cell-based, human; details: 25 μM, 22-24 hr, knockout vs parent THP1 cells
Description: as §1, §2

murine STING = molecular target: T1, murine STING (Mus musculus, UniProt Q3TBT3); assay: NF-κB and IRF activities in THP1-dual reporter cells expressing murine STING; type: cell-based; details: 25 μM, 22-24 hr, fold over DMSO
T1 construct: host or cells: THP1-dual NF-κB/IRF reporter cells (human monocytic line) expressing murine STING
T1 sequence (Q3TBT3 1-378): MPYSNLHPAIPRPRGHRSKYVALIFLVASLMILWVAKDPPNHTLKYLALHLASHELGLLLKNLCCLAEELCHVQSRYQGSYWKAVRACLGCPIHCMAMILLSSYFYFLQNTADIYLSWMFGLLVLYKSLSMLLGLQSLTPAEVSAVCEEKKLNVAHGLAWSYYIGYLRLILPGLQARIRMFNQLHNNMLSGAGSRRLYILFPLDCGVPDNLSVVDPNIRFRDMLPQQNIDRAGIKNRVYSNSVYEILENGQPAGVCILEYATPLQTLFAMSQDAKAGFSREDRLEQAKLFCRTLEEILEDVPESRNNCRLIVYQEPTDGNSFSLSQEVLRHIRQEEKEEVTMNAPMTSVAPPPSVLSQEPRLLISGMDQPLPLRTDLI
Description: as §1, §2

## COc1ccc(C(=O)Nc2nc(CC(=O)Nc3nc4ccc(S(C)(=O)=O)cc4s3)cs2)cc1 [Compound 57.2]
IRF [1]
  IRF-inducing activity (RLU): comparable to or greater than the parent molecule 057
IRF [1]; listed as 057.2
  IRF-inducing activity (RLU): concentration-dependent activity
NF-κB [2]
  NFκB-inducing activity (RLU): comparable to or greater than the parent molecule 057
NF-κB [2]; listed as 057.2
  NFκB-inducing activity (RLU): concentration-dependent activity

## COc1ccc(C(=O)Nc2nc(CC(=O)Nc3nc4ccccc4s3)cs2)cc1OC [Compound 57.3]
IRF [1]
  IRF-inducing activity (RLU): comparable to or greater than the parent molecule 057
IRF [1]; listed as 057.3
  IRF-inducing activity (RLU): concentration-dependent activity
NF-κB [2]
  NFκB-inducing activity (RLU): comparable to or greater than the parent molecule 057
NF-κB [2]; listed as 057.3
  NFκB-inducing activity (RLU): concentration-dependent activity

## CCOc1ccc2nc(NC(=O)Cc3csc(NC(=O)c4cc(OC)cc(OC)c4)n3)sc2c1 [Compound 057]
IRF [1]
  IRF-inducing activity (RLU): concentration-dependent activity; also recorded: robustly induces both NFκB and IRF activities
NF-κB [3]
  NF-κB activity: dose-dependent response; also recorded: elicited both NFκB and IRF activities; also recorded: elicits
THP1-NF-κB cells [4]
  expression of co-stimulatory molecules CD80 and CD86 (MFI): induces the expression co-stimulatory molecules; also recorded: elicited the expression of surface co-stimulatory molecules; also recorded: elicits
NF-κB [2]
  NFκB-inducing activity (RLU): concentration-dependent activity; also recorded: robustly induces both NFκB and IRF activities
THP1-NF-κB cells [5]
  apoptosis (Annexin V+ cells): does not induce apoptosis; also recorded: without inducing cellular apoptosis
MyD88
  dependence of NF-κB and IRF activities on MyD88: MyD88-independent
C57BL/6 mice
  adjuvant activity: anti-rHA IgG titers: exerts adjuvant activity in vivo; also recorded: substantially higher antibody titers; also recorded: demonstrates in vivo adjuvanticity in mice
C57BL/6 mice; listed as PVP-057
  adjuvant activity: anti-rHA IgG titers: demonstrates in vivo adjuvanticity in mice
C57BL/6 mice; single i.m. injection Day 0, serum Day 14
  adjuvant activity: rHA-specific IgG titers: exerts adjuvant activity in vivo; also recorded: substantially higher antibody titers
IRF [6]
  IRF activity: dose-dependent response; also recorded: elicited both NFκB and IRF activities; also recorded: elicits
THP1-NF-κB cells [7]
  cell adherence (number of adherent cells): induces cell adherence; also recorded: elicits human leukocyte adherence
STING
  dependence of NF-κB and IRF activities on STING: STING-dependent
Murine STING
  activation of murine STING (NF-κB and IRF activities): activates murine STING; also recorded: activated THP1 cells expressing murine STING
